Assay results published in patent publication US4557871A, “Novel styrene derivatives of the general formula” (Taisho Pharmaceutical Co., Ltd., priority 1983, dated 1985).
Where two headings read alike, the source gives them in different places.

Columns and labels:
[1] = tested on: edema in left hind paw; assay: Carrageenin-induced hind paw edema in rats, test compound orally 1 hour before (Winter's method), anti-inflammatory activity; format: in vivo, Male Wistar rats; settings: paw volume 3 hours after carrageenin; for inhibition at 6 mg/kg: Rattus norvegicus, po
Description: Anti-inflammatory activity was evaluated by the Winter's method [Journal of Pharmacology and Experimental Therapeutics, volume 141, page 369(1963)]. Male Wistar rats (group of 6 animals) were administered orally the test compounds (dose: 6 mg/kg) one hour before inducing the edema in left hind paw with 0.1 ml of a 1% carrageenin-saline suspension. Volumes of the hind paws were determined with a volume meter 3 hours after the injection of carrageenin. Indomethacin (Control 1) and 4-vinylphenylacetic acid (Control 2) were used as controls.

[2] = tested on: edema in left hind paw; assay: Duration of inhibition of carrageenin-induced hind paw edema, test compound orally 1, 24 or 48 hours before inducing the edema; format: in vivo, Male Wistar rats; settings: Rattus norvegicus; for inhibition at 3 mg/kg: po; for inhibition at 30 mg/kg: dose 30 mg/kg oral; for inhibition at 1.5 mg/kg: dose 1.5 mg/kg oral; for inhibition at 6 mg/kg: dose 6 mg/kg oral
Description: Anti-inflammatory activity was evaluated by the Winter's method [Journal of Pharmacology and Experimental Therapeutics, volume 141, page 369(1963)]. […] Volumes of the hind paws were determined with a volume meter 3 hours after the injection of carrageenin. Indomethacin (Control 1) and 4-vinylphenylacetic acid (Control 2) were used as controls.
Following a procedure similar to that of Test example 1, the test compounds were administered orally to the rats 1, 24 or 48 hours before inducing the edema, and there was obtained a result shown in Table 2.

[3] = 6 mg/kg oral, one hour before carrageenin
[4] = read-out: Inhibition of edema, 6 mg/kg oral, one hour before carrageenin
[5] = 6 mg/kg oral, one hour before carrageenin, read-out: Inhibition of edema
[6] = 1 hr before inducing edema, read-out: Inhibition of edema, 1 hr
[7] = 24 hrs before inducing edema, read-out: Inhibition of edema, 24 hrs
[8] = 48 hrs before inducing edema, read-out: Inhibition of edema, 48 hrs

| Compound | inhibition at 6 mg/kg [1, 5] | further results |
| --- | --- | --- |
| COc1ccc2c(c1)c(CC(=O)O)c(C)n2C(=O)c1ccc(Cl)cc1 [Control 1, Indomethacin] |  | Inhibition of edema [1, 3]: 59.3%; inhibition at 6 mg/kg [1, 4]: 68.2%; inhibition at 3 mg/kg ([2]; read-out: Inhibition of edema, 1 hr): 30.4%; inhibition at 3 mg/kg ([2]; read-out: Inhibition of edema, 24 hrs): 8.1%; inhibition at 3 mg/kg ([2]; read-out: Inhibition of edema, 48 hrs): 0.8% |
| C=Cc1ccc(CC(=O)O)cc1 [Control 2, 4-vinylphenylacetic acid] | 15.7% | inhibition at 30 mg/kg [2, 6]: 40.2%; inhibition at 30 mg/kg [2, 7]: 1.3%; inhibition at 30 mg/kg [2, 8]: -3.5% |
| CN1C(C(=O)Nc2ccccn2)=C(O)c2ccccc2S1(=O)=O [Control 3, piroxicam] |  | inhibition at 1.5 mg/kg [2, 6]: 48.6%; inhibition at 1.5 mg/kg [2, 7]: 13.3%; inhibition at 1.5 mg/kg [2, 8]: 2.1% |
| CC(C)=Cc1ccc(C(C)C(=O)O)cc1 (centres unmarked) [Control 4, 2-[4-(2,2-dimethylvinyl)phenyl]propionic acid] |  | inhibition at 6 mg/kg [2, 6]: 59.3%; inhibition at 6 mg/kg [2, 7]: -8.5%; inhibition at 6 mg/kg [2, 8]: 3.7% |
| CC(C(=O)O)c1ccc(C=C(Cl)Cl)cc1 (centres unmarked) [ST-1, 2-[4-(2,2-dichlorovinyl)phenyl]propionic acid] |  | Inhibition of edema [1, 3]: 66.1%; inhibition at 1.5 mg/kg [2, 6]: 42.6%; inhibition at 1.5 mg/kg [2, 7]: 31.1%; inhibition at 1.5 mg/kg [2, 8]: 25.3% |
| O=C(O)Cc1ccc(C=C(Cl)Cl)cc1 [ST-2, 4-(2,2-Dichlorovinyl)phenylacetic acid] | 63.9% |  |
| O=C(O)Cc1cccc(C=C(Cl)Cl)c1 [ST-3, 3-(2,2-Dichlorovinyl)phenylacetic acid] | 31.9% |  |
| CC(C(=O)O)c1cccc(C=C(Cl)Cl)c1 (centres unmarked) [ST-4, 2-[3-(2,2-Dichlorovinyl)phenyl]propionic acid] | 32% |  |
| CCOC(=O)C(C)c1ccc(C=C(Cl)Cl)cc1 (centres unmarked) [ST-5, ethyl 2-[4-(2,2-dichlorovinyl)phenyl]propionate] | 46.5% |  |
| CC(C(=O)O)c1ccc(C=C(F)F)cc1 (centres unmarked) [ST-7, 2-[4-(2,2-difluorovinyl)phenyl]propionic acid] | 48.4% |  |
| CC(C(=O)O)c1ccc(C=C(Cl)Cl)c(F)c1 (centres unmarked) [ST-8, 2-[4-(2,2-dichlorovinyl)-3-fluorophenyl]propionic acid] | 64.8% |  |
| CC(C(=O)O)c1ccc(C=C(Cl)Cl)c(Cl)c1 (centres unmarked) [ST-9, 2-[3-Chloro-4-(2,2-dichlorovinyl)phenyl]propionic acid] | 58% |  |
| CC(CO)c1ccc(C=C(Cl)Cl)cc1 (centres unmarked) [ST-10, 2-[4-(2,2-dichlorovinyl)phenyl]propanol] | 62.4% |  |
| CC(C(N)=O)c1ccc(C=C(Cl)Cl)cc1 (centres unmarked) [ST-11, 2-[4-(2,2-dichlorovinyl)phenyl]propionamide] | 26.5% |  |
| Cc1ccc(NC(=O)C(C)c2ccc(C=C(Cl)Cl)cc2)cc1 (centres unmarked) [ST-14, N-(4-Methylphenyl)-2-[4-(2,2-dichlorovinyl)phenyl]propionamide] | 33.6% |  |
| CC(C(=O)Nc1ccc(Cl)cc1)c1ccc(C=C(Cl)Cl)cc1 (centres unmarked) [ST-16, N-(4-Chlorophenyl)-2-[4-(2,2-dichlorovinyl)phenyl]propionamide] | 43.1% |  |
| CC(C(=O)Nc1ccc(F)cc1)c1ccc(C=C(Cl)Cl)cc1 (centres unmarked) [ST-17, N-(4-Fluorophenyl)-2-[4-(2,2-dichlorovinyl)phenyl]propionamide] | 40% |  |
| CC(C(=O)Nc1ccc(C(=O)O)cc1)c1ccc(C=C(Cl)Cl)cc1 (centres unmarked) [ST-20, 4-{2-[4-(2,2-Dichlorovinyl)phenyl]propionylamino}benzoic acid] | 47% |  |
| CC(C(=O)Nc1ccccn1)c1ccc(C=C(Cl)Cl)cc1 (centres unmarked) [ST-22, N-(2-Pyridyl)-2-[4-(2,2-dichlorovinyl)phenyl]propionamide] | 35.5% |  |
| CCOC(=O)CNC(=O)C(C)c1ccc(C=C(Cl)Cl)cc1 (centres unmarked) [ST-23, N-{2-[4-(2,2-Dichlorovinyl)phenyl]propionyl}glycine ethyl ester] | 35.5% |  |
| CC(C(=O)NCC(=O)O)c1ccc(C=C(Cl)Cl)cc1 (centres unmarked) [ST-24, N-{2-[4-(2,2-Dichlorovinyl)phenyl]propionyl}glycine] | 30% |  |
| CCNC(=O)C(C)c1ccc(C=C(Cl)Cl)cc1 (centres unmarked) [ST-25, N-Ethyl-2-[4-(2,2-dichlorovinyl)phenyl]propionamide] | 37.1% |  |
| CC(C(=O)NO)c1ccc(C=C(Cl)Cl)cc1 (centres unmarked) [ST-34, 2-[4-(2,2-dichlorovinyl)phenyl]propionylhydroxamic acid] | 32.5% |  |

| Compound | inhibition at 6 mg/kg [1, 5] | further results |
| --- | --- | --- |
| CC(C(=O)O)c1ccc(C=C(Cl)Cl)cc1 (centres unmarked) [ST-35, sodium 2-[4-(2,2-dichlorovinyl)phenyl]propionate] |  | inhibition at 6 mg/kg [1, 4]: 46% |
| CC(C(=O)O)c1ccc(C=C(Cl)Cl)cc1 (centres unmarked) [ST-36, calcium 2-[4-(2,2-dichlorovinyl)phenyl]propionate] |  | Inhibition of edema [1, 3]: 43.0% |
| CC(C(=O)O)c1ccc(C=C(Cl)Cl)cc1 (centres unmarked) [ST-37, Aluminum 2-[4-(2,2-dichlorovinyl)phenyl]propionate] |  | Inhibition of edema [1, 3]: 63.1% |
| CC(C(=O)O)c1ccc(C=C(Cl)Cl)cc1 (centres unmarked) [ST-38, morpholinium 2-[4-(2,2-dichlorovinyl)phenyl]propionate] |  | Inhibition of edema [1, 3]: 35.6% |
| CC(C(=O)O)c1ccc(C=C(Cl)Cl)cc1 (centres unmarked) [ST-39, 2-Pyridylammonium 2-[4-(2,2-dichlorovinyl)phenyl]propionate] |  | Inhibition of edema [1, 3]: 51.4% |
| CC(C)=CCOC(=O)C(C)c1ccc(C=C(Cl)Cl)cc1 (centres unmarked) [ST-41, prenyl 2-[4-(2,2-dichlorovinyl)phenyl]propionate] | 48.8% |  |
| CC(C)CCOC(=O)C(C)c1ccc(C=C(Cl)Cl)cc1 (centres unmarked) [ST-42, Isopentyl 2-[4-(2,2-dichlorovinyl)phenyl]propionate] | 60.4% |  |
| COCOC(=O)C(C)c1ccc(C=C(Cl)Cl)cc1 (centres unmarked) [ST-43, Methoxymethyl 2-[4-(2,2-dichlorovinyl)phenyl]propionate] | 37.1% |  |
| CC(C(=O)OCc1ccccn1)c1ccc(C=C(Cl)Cl)cc1 (centres unmarked) [ST-44, 2-Pyridylmethyl 2-[4-(2,2-dichlorovinyl)phenyl]propionate] | 59.8% |  |
| CC(=O)OC(C)OC(=O)C(C)c1ccc(C=C(Cl)Cl)cc1 (centres unmarked) [ST-45, 1-(Acetoxy)ethyl 2-[4-(2,2-dichlorovinyl)phenyl]propionate] | 44.8% |  |
| CCC(=O)OCOC(=O)C(C)c1ccc(C=C(Cl)Cl)cc1 (centres unmarked) [ST-46, Propionyloxymethyl 2-[4-(2,2-dichlorovinyl)phenyl]propionate] | 32.2% |  |
| CCC(=O)OC(C)OC(=O)C(C)c1ccc(C=C(Cl)Cl)cc1 (centres unmarked) [ST-47, 1-(Propionyloxy)ethyl 2-[4-(2,2-dichlorovinyl)phenyl]propionate] | 49.9% |  |
| CCCCCCCCCCCCCCCC(=O)OC(C)OC(=O)C(C)c1ccc(C=C(Cl)Cl)cc1 (centres unmarked) [ST-48, 1-(Palmitoyloxy)ethyl 2-[4-(2,2-dichlorovinyl)phenyl]propionate] | 32.7% |  |
| CC(C(=O)OC1OC(=O)c2ccccc21)c1ccc(C=C(Cl)Cl)cc1 (centres unmarked) [ST-49, 2-Phthalidyl 2-[4-(2,2-dichlorovinyl)phenyl]propionate] | 53.3% |  |
| CC(C)=CCOC(=O)C(C)c1ccc(C=C(Cl)Cl)c(F)c1 (centres unmarked) [ST-50, Prenyl 2-[4-(2,2-dichlorovinyl)-3-fluorophenyl]propionate] | 61.4% |  |
| CCOC(=O)C(C)c1ccc(C=C(Cl)Cl)c(F)c1 (centres unmarked) [ST-55, ethyl 2-[4-(2,2-dichlorovinyl)-3-fluorophenyl]propionate] | 38.2% |  |
| CCOC(=O)C(C)c1ccc(C=C(Cl)Cl)c(Cl)c1 (centres unmarked) [ST-56, Ethyl 2-[3-chloro-4-(2,2-dichlorovinyl)phenyl]propionate] | 39.4% |  |
| CC(C)=CCC/C(C)=C/COC(=O)C(C)c1ccc(C=C(Cl)Cl)cc1 (centres unmarked) [ST-58, geranyl 2-[4-(2,2-dichlorovinyl)phenyl]propionate] | 39% |  |
| CC(C(=O)OCCO)c1ccc(C=C(Cl)Cl)cc1 (centres unmarked) [ST-59, 2-Hydroxyethyl 2-[4-(2,2-dichlorovinyl)phenyl]propionate] | 57.3% |  |
| CC(C)=CCCC(C)=CCCC(C)=CCOC(=O)C(C)c1ccc(C=C(Cl)Cl)cc1 (centres unmarked) [ST-60, Farnesyl 2-[4-(2,2-dichlorovinyl)phenyl]propionate] | 50.8% |  |
| CC(C(=O)OC1CCCCC1)c1ccc(C=C(Cl)Cl)cc1 (centres unmarked) [ST-61, Cyclohexyl 2-[4-(2,2-dichlorovinyl)phenyl]propionate] | 43.7% |  |
| CC(C)=CCC/C(C)=C/COC(=O)C(C)c1ccc(C=C(Cl)Cl)c(Cl)c1 (centres unmarked) [ST-62, Geranyl 2-[3-chloro-4-(2,2-dichlorovinyl)phenyl]propionate] | 43.2% |  |
